Measurements taken from patent US20090099074A1, “MODULATING FOOD INTAKE” (CONJUCHEM BIOTECHNOLOGIES INC., priority 2007, published 2009).

System: Male Wistar rats
Experiment: Refeeding after 24 h fast, subcutaneous injection, sham operated or AP-SFO lesioned rats
Assay type: in vivo, rat
Method: Male Wistar rats were either sham operated or subjected to electrolytic lesions of the AP, SFO or both. Two weeks were allowed for recovery after surgeries while body weight, food and water intake were measured daily. Then rats, which were fasted for 24 hours, were subcutaneously injected with anorexigenic doses of PYY-HAS, PYY or saline (for controls) following which free access to food was reallowed. Food and water intake were measured for 24 hours following drug injections. […] However, the anorexigenic effect of both peptides was delayed in AP-SFO-lesioned rats, 1 hour in PYY treated rats and 2 hours in PYY-HAS treated rats.

With PYY as the substance, how does the “delay of anorexigenic effect in AP-SFO-lesioned rats” value (AP-SFO-lesioned rats) read?
Its value is 1 h.

And the “body weight gain after food deprivation” value (after 24 hours fast)?
The value was “did not”.

And the “persistence of anorexigenic effect during refeeding” value (after 24 hours fast)?
Its value is “only during the first two hours of refeeding”.

And the “time of maximum anorexigenic effect” value (after 24 hours fast)?
Its value is 1 h.
